Read-outs that look alike come from different tables or passages of the source. Values belong to the compound of their own block, whether it stands above or below them. Where a SMILES comes first, the peptide text is derived from it.
Assay: Chlorine dioxide compatibility: ClO2 decrease in 200 ppm ClO2 test samples containing an additive (UV/Vis absorption or titration)
Type: physicochemical
Conditions: for Chlorine dioxide (ppm): 200 ppm ClO2 composition with sucralose 0.5 wt. %
[1] = Table 2, 200 ppm ClO2 test sample, single additive at listed wt. %, interpolated to 8 hours
[2] = Table 3, […], interpolated to 8 hours
[3] = Table 3, 200 ppm ClO2 test sample, single additive at listed wt. %, interpolated to 8 hours
[4] = FIG. 1A, 200 ppm ClO2, single sweetener at 0.5 wt. %
[5] = Table 2, […], interpolated to 8 hours

Compound: COc1ccc(C=O)cc1OC [compound 30, Methyl Vanillin]
ClO2 decrease @ 8 hrs: 100%

Compound: CC1=CC(=O)NS(=O)(=O)O1 [compound 32, Acesulfame Potassium]
ClO2 decrease @ 8 hrs: 100% | chlorine dioxide concentration versus time behaviour: consumed all of the chlorine dioxide within about the first hour

ClO2 decrease @ 8 hrs [1]: 13%
Compound: CC12CCC(CC1)C(C)(C)O2 [compound 6, Eucalyptol]

Compound: CC=Cc1ccc(OC)cc1 [compound 31, Anethole]
ClO2 decrease @ 8 hrs [2]: 100%

Compound: C/C=C/C=C/C(=O)O [compound 29, Sorbic Acid]
ClO2 decrease @ 8 hrs [3]: 100%

Compound: CC(C)=O [compound 19, Acetone]
ClO2 decrease @ 8 hrs: 0.04%

ClO2 decrease @ 8 hrs [1]: 2%
Compound: COC(=O)[C@H](Cc1ccccc1)NC(=O)[C@@H](N)CC(=O)O [compound 7, Aspartame] (H-Asp-Phe-OMe)
chlorine dioxide concentration versus time behaviour [4]: steep immediate declines in chlorine dioxide concentration, followed by much more gradual declines

Compound: t-Cinnamaldehyde [compound 26]
ClO2 decrease @ 8 hrs [2]: 37%

ClO2 decrease @ 8 hrs [1]: 9% | chlorine dioxide present at 8 hours (interpolation of the data at 0.88 hours and 15.35 hours): 166.5 ppm | Chlorine dioxide (ppm) (time 0.25 hours): 183 ppm | Chlorine dioxide (ppm) (time 0.88 hours): 168 ppm | Chlorine dioxide (ppm) (time 15.35 hours): 165 ppm | Chlorine dioxide (ppm) (time 22.62 hours): 165 ppm | Chlorine dioxide (ppm) (time 70.58 hours): 163 ppm
Compound: OC[C@H]1O[C@H](O[C@]2(CCl)O[C@H](CCl)[C@@H](O)[C@@H]2O)[C@H](O)[C@@H](O)[C@H]1Cl [compound 10, Sucralose]
chlorine dioxide concentration versus time behaviour [4]: steep immediate declines in chlorine dioxide concentration, followed by much more gradual declines

Compound: CC(O)CO (stereo not shown) [compound 13, Propylene Glycol]
ClO2 decrease @ 8 hrs [5]: 1%

Compound: NCCO [compound 38, Monoethanolamine]
ClO2 decrease @ 8 hrs: 92%

ClO2 decrease @ 8 hrs [1]: 5%
Compound: CCNC(=O)C1CC(C)CCC1C(C)C (stereo not shown) [compound 5, Ethyl Menthane Carboxamide]

Compound: N[C@@H](CCC(=O)O)C(=O)O [compound 21, l-Glutamic Acid]
ClO2 decrease @ 8 hrs [5]: 1%

ClO2 decrease @ 8 hrs [1]: 1%
Compound: CC(C)[C@@H]1CC[C@@H](C)C[C@H]1O [Comp. 1, L-menthol]

ClO2 decrease @ 8 hrs [1]: 1%
Compound: OCC(O)CO [compound 15, Glycerol]

ClO2 decrease @ 8 hrs [1]: 2%
Compound: CC12CCC(CC1=O)C2(C)C (stereo not shown) [Comp. 3, Camphor]

Compound: C/C=C/C=C/C(=O)[O-].[K+] [compound 35, Potassium Sorbate]
ClO2 decrease @ 8 hrs: 99%

Compound: O=Cc1ccccc1 [compound 2, Benzaldehyde]
ClO2 decrease @ 8 hrs [5]: 1%

ClO2 decrease @ 8 hrs [1]: 8%
Compound: OCc1ccccc1 [compound 12, Benzyl Alcohol]

Compound: O.O.O=C1NS(=O)(=O)c2ccccc21.[Na] [compound 9, Sodium saccharin Dihydrate]
ClO2 decrease @ 8 hrs: 3% | chlorine dioxide concentration versus time behaviour: steep immediate declines in chlorine dioxide concentration, followed by much more gradual declines

ClO2 decrease @ 8 hrs [1]: 4%
Compound: CCO [compound 17, Ethanol]

Compound: CCOC(C)=O [compound 16, Ethyl Acetate]
ClO2 decrease @ 8 hrs: 3%

ClO2 decrease @ 8 hrs [3]: 100%
Compound: O=C1O[C@H]([C@@H](O)CO)C(O)=C1O [compound 28, Ascorbic Acid]

ClO2 decrease @ 8 hrs [1]: 4%
Compound: CC(C)[C@@H]1CC[C@@H](C)CC1=O [compound 4, Menthone]

From patent US9101562B2, “Additives for chlorine dioxide-containing compositions” (BASF CORPORATION, priority 2010, dated 2015)
